Experimental data: ChEMBL document CHEMBL1156369, “New acetophenone glucosides isolated from extracts of Helichrysum italicum with antiinflammatory activity” (2001)
The source made the active and inactive calls. The calls are words filed in the database; no cut-off is given here.

Columns and labels:
[1] = tested on: Mus musculus; assay: Antiinflammatory activity against TPA-induced ear edema in mouse at 0.5 mg/ear topically; type: functional
[2] = tested on: Mus musculus; assay: Antiinflammatory activity against TPA-induced ear edema in mouse assessed per ear drug treated topically; type: functional

`C=C(C)C(O)Cc1cc(C(C)=O)ccc1O` (stereo not drawn) was tested, and the Activity [1] was 68% and the ID50 [2] was 0.63 µmol.

For `CC(=O)c1ccc(O[C@@H]2O[C@H](CO)[C@@H](O)[C@H](O)[C@H]2O)c(CC=C(C)C)c1`, the Activity [1] was “inactive”.

With `C=C(CO)[C@@H]1Cc2cc(C(C)=O)ccc2O1` [BITALIN A] the Activity [1] was 50%.

`CC(=O)c1ccc(O[C@@H]2O[C@H](CO)[C@@H](O)[C@H](O)[C@H]2O)c(CCO)c1` was tested, and the Activity [1] was “inactive”.

`CC(=O)c1ccc(O)c(CC=C(C)C)c1` was tested, and the Activity [1] was “inactive”.

`C=C(CO[C@@H]1O[C@H](CO)[C@@H](O)[C@H](O)[C@H]1O)[C@@H]1Cc2cc(C(C)=O)ccc2O1` was tested, and the Activity [1] was “inactive”.

`Cc1occc(=O)c1O[C@@H]1O[C@H](CO)[C@@H](O)[C@H](O)[C@H]1O` was tested, and the Activity [1] was “inactive”.
